ChEMBL document CHEMBL1156082, “Novel orally active morpholine N-arylsulfonamides gamma-secretase inhibitors with low CYP 3A4 liability” (Bioorg Med Chem Lett, 2009)

Experiments:
[1] = AUC (0 to 6 hrs) in rat blood at 10 mg/kg, po; type: ADME, organism-based; parameters: time < 6 hr, dose 10 mg/kg, route oral
[2] = Inhibition of gamma-secretase assessed as reduction in membrane amyloid beta40 production
[3] = Inhibition of gamma-secretase assessed as reduction in cell amyloid beta40 production
[4] = tested on: Mus musculus; test: Reduction of amyloid beta40 level in TgCRND8 mouse plasma at 30 mg/kg, sc after 3 hrs; type: functional; parameters: scale not given: the % may be the effect or the level left; details: route subcutaneous
[5] = Drug level in rat brain at 10 mg/kg, po; type: ADME, organism-based; parameters: dose 10 mg/kg, route oral
[6] = tested on: Mus musculus; test: Reduction of amyloid beta40 level in TgCRND8 mouse plasma drug dosed po once daily for 5 days; type: functional; details: 120 h
[7] = tested on: Mus musculus; test: Reduction of amyloid beta40 level in TgCRND8 mouse brain drug dosed po once daily for 5 days; type: functional; details: 120 h
[8] = Inhibition of gamma-secretase-mediated notch processing by whole cell assay
[9] = Ratio of IC50 for gamma-secretase-mediated notch processing to IC50 for gamma-secretase assessed as reduction in cell amyloid beta40 production

| Compound | AUC(0-t) at 6 h [1] | IC50 [2] | IC50 [3] | further results |
| --- | --- | --- | --- | --- |
| O=C(OC1([C@H]2COC[C@@H](C3CC3)N2S(=O)(=O)c2ccc(Cl)cc2)CC1)N1C2CCC1CNC2 | 4660 ng·h/mL | 17 nM | 72 nM |  |
| CC(=O)N1C2CCC1CN(C(=O)OC1([C@H]3CO[C@@H](C)[C@@H](C4CC4)N3S(=O)(=O)c3ccc(Cl)cc3)CC1)C2 | 178 ng·h/mL | 5.4 nM |  |  |
| O=C(OC1([C@H]2COC[C@@H](C3CC3)N2S(=O)(=O)c2ccc(Cl)cc2)CC1)N1CC[C@H](NS(=O)(=O)C(F)(F)F)C1 | 870 ng·h/mL | 49 nM |  |  |
| CC(=O)N1C2CCC1CN(C(=O)OC1([C@H]3COC[C@@H](C4CC4)N3S(=O)(=O)c3ccc(Cl)cc3)CC1)C2 | 871 ng·h/mL | 15 nM | 25 nM |  |
| O=C(OC1([C@H]2COC[C@@H](C3CC3)N2S(=O)(=O)c2ccc(Cl)cc2)CC1)N1C2CCC1CN(CCO)C2 | 1280 ng·h/mL | 15 nM | 27 nM |  |
| C[C@@H]1CN(C(=O)OC2([C@H]3COC[C@@H](C4CC4)N3S(=O)(=O)c3ccc(Cl)cc3)CC2)CCN1CCO |  | 37 nM |  |  |
| CC(=O)N1C2CCC1CN(C(=O)OC1([C@H]3COC(C)(C)[C@@H](C4CC4)N3S(=O)(=O)c3ccc(Cl)cc3)CC1)C2 | 6 ng·h/mL | 4.6 nM |  |  |
| C[C@H]1OC[C@H](C2(OC(=O)N3CC4CCC(C3)N4CCO)CC2)N(S(=O)(=O)c2ccc(Cl)cc2)[C@@H]1C1CC1 |  | 0.9 nM |  |  |
| O=C(OC1([C@H]2CCC[C@@H](c3cc(F)cc(F)c3)N2S(=O)(=O)c2ccc(Cl)cc2)CC1)N1CCN(CCO)CC1 |  |  | 5 nM |  |
| O=C(OC1([C@H]2COC[C@@H](C3CC3)N2S(=O)(=O)c2ccc(Cl)cc2)CC1)N1CC[C@H](O)C1 |  | 27 nM |  |  |
| CN1C2CCC1CN(C(=O)OC1([C@H]3COC[C@@H](C4CC4)N3S(=O)(=O)c3ccc(Cl)cc3)CC1)C2 | 939 ng·h/mL | 4.6 nM | 20 nM | Activity [4]: -88% |
| O=C(OC1([C@H]2COC[C@@H](C3CC3)N2S(=O)(=O)c2ccc(Cl)cc2)CC1)N1CC2CCC(C1)N2 | 4360 ng·h/mL | 7.1 nM | 25 nM | Activity [4]: -90% |
| O=C(OC1([C@H]2COC[C@@H](C3CC3)N2S(=O)(=O)c2ccc(Cl)cc2)CC1)N1CC[C@H](OCCO)C1 | 11 ng·h/mL | 20 nM | 31 nM |  |
| O=C(OC1([C@H]2COC[C@@H](C3CC3)N2S(=O)(=O)c2ccc(Cl)cc2)CC1)N1CC2CCC(C1)N2CCO | 1920 ng·h/mL | 7.9 nM | 15 nM | Activity [4]: -93%; ED50 [6]: 10 mg/kg; ED50 [7]: 100 mg/kg; IC50 [8]: 194 nM; Ratio IC50 [9]: 13 |
| CCN1C2CCC1CN(C(=O)OC1([C@H]3COC[C@@H](C4CC4)N3S(=O)(=O)c3ccc(Cl)cc3)CC1)C2 | 1100 ng·h/mL | 10 nM | 25 nM |  |
| CC(=O)N1C2CCC1CN(C(=O)OC1([C@H]3CO[C@H](C)[C@@H](C4CC4)N3S(=O)(=O)c3ccc(Cl)cc3)CC1)C2 | 23 ng·h/mL | 4 nM |  |  |
| O=C(OC[C@H]1CCC[C@@H](c2cc(F)cc(F)c2)N1S(=O)(=O)c1ccc(Cl)cc1)N1CCN(CCO)CC1 |  | 41 nM | 167 nM |  |
| C[C@@H]1OC[C@H](C2(OC(=O)N3CC4CCC(C3)N4CCO)CC2)N(S(=O)(=O)c2ccc(Cl)cc2)[C@@H]1C1CC1 |  | 1.5 nM |  |  |

Further lines, with some results ahead:

| AUC(0-t) at 6 h [1] | IC50 [2] | IC50 [3] | Compound | further results |
| --- | --- | --- | --- | --- |
|  | 12 nM |  | O=C(OC1([C@H]2COC[C@@H](c3cc(F)cc(F)c3)N2S(=O)(=O)c2ccc(Cl)cc2)CC1)N1CC[C@H](O)C1 | Activity [4]: 21% |
|  | 41 nM |  | CS(=O)(=O)N1C2CCC1CN(C(=O)OC1([C@H]3COC[C@@H](C4CC4)N3S(=O)(=O)c3ccc(Cl)cc3)CC1)C2 |  |
| 567 ng·h/mL | 8.9 nM | 31 nM | CN(C)CC(=O)N1C2CCC1CN(C(=O)OC1([C@H]3COC[C@@H](C4CC4)N3S(=O)(=O)c3ccc(Cl)cc3)CC1)C2 |  |
|  | 76 nM | 95 nM | O=C(OC[C@H]1COC[C@@H](c2cc(F)cc(F)c2)N1S(=O)(=O)c1ccc(Cl)cc1)N1CCN(CCO)CC1 |  |
| 35 ng·h/mL | 14 nM | 41 nM | NC(=O)CC1CCN(C(=O)OC2([C@H]3COC[C@@H](C4CC4)N3S(=O)(=O)c3ccc(Cl)cc3)CC2)CC1 |  |
|  | 30 nM |  | CC(C)(C(=O)O)C1CCN(C(=O)OC2([C@H]3COC[C@@H](C4CC4)N3S(=O)(=O)c3ccc(Cl)cc3)CC2)CC1 | AUC [5]: 703 ng·h/mL |
| 1370 ng·h/mL | 1.1 nM |  | CC1(C)OC[C@H](C2(OC(=O)N3CC4CCC(C3)N4CCO)CC2)N(S(=O)(=O)c2ccc(Cl)cc2)[C@@H]1C1CC1 |  |
| 446 ng·h/mL | 9.5 nM | 9 nM | CC(C)(CO)N1CCN(C(=O)OC2([C@H]3COC[C@@H](C4CC4)N3S(=O)(=O)c3ccc(Cl)cc3)CC2)CC1 | Activity [4]: -78% |
|  | 24 nM |  | O=C(O)CC1CCN(C(=O)OC2([C@H]3COC[C@@H](C4CC4)N3S(=O)(=O)c3ccc(Cl)cc3)CC2)CC1 | AUC [5]: 2460 ng·h/mL |
|  | 5.5 nM |  | C[C@@H]1CN(C(=O)OC2([C@H]3COC[C@@H](c4cc(F)cc(F)c4)N3S(=O)(=O)c3ccc(Cl)cc3)CC2)CCN1CCO | Activity [4]: -87% |
| 2910 ng·h/mL | 2.4 nM | 17 nM | CN1CC2CCC(C1)N2C(=O)OC1([C@H]2COC[C@@H](C3CC3)N2S(=O)(=O)c2ccc(Cl)cc2)CC1 |  |
|  | 1.4 nM |  | CC(C)(CO)N1CCN(C(=O)OC2([C@H]3COC[C@@H](c4cc(F)cc(F)c4)N3S(=O)(=O)c3ccc(Cl)cc3)CC2)CC1 | Activity [4]: -68% |
